Results reported in EP2423181A1, “Multitarget substituted biphenyl diol derivatives” (PROUS INSTITUTE FOR BIOMEDICAL RESEARCH S.A., priority 2010, dated 2012).
Structures can show the parent of a compound that is named as a salt. Where two headings read alike, the source gives them in different places.

Tests used:
mice [1] = test: Hot plate test (analgesic activity); assay type: in vivo
[2] = biological target: T1, CDK2/CCNA2 (cdk2/cyclin A) (Homo sapiens, UniProt P24941); test: CDK2/cyclin A kinase inhibition ([32P]Histone H1); assay type: biochemical
T1 construct: host or cells: Sf21 insect cells
Protocol: Human recombinant Sf21 cells were employed to assess the activity on protein serine threonine kinase CDK2/CCNA2 (cdk2/cyclin A). Histone H1 at 100 µg/ml was used as a substrate and the activity was measured by quantification of [^32P]Histone H1 after preincubation and incubation times of 15 and 30 min, respectively, at 37°C in 20 mM MOPS, pH 7.2, 5 mM EGTA, 20 mM MgCl2, 1 mM DTT, 25 mM β-Glycerophosphate, 1 mM Na3V04 incubation buffer (Gray, N. et al. Curr Med Chem, 1999, 6(9):859-875). Table 7. Inhibition of CDK2 at 10 µM

mice [3] = test: Hot plate test (analgesic activity); assay type: in vivo; remark: listed apart in the source
Protocol: The hot plate test was used as an animal model of thermally-induced pain. The inhibitory activity measured on the time licking and biting induced by temperature (30 sec max at 55°C) indicates analgesic effect. […] Table 13. Analgesic activity of example 1 in the hot plate test

Akt3 (PRKBG) = biological target: T2, Akt3 (PRKBG) (Homo sapiens, UniProt Q9Y243); test: Akt3 kinase inhibition ([32P]Crosstide KK); assay type: biochemical
T2 construct: host or cells: insect cells
Protocol: Akt3 activity was obtained in human recombinant insect cells using Crosstide KK 10 µM as a substrate. The incubation buffer was 20 mM MOPS, pH 7.2, 25 mM β-Glycerophosphate, 1 mM DTT, 5 mM EGTA, 20 mM MgCl2, 1 mM Na3VO4 and the preincubation and incubation times 15 and 30 min, respectively, at 37°C. The quantification of inhibition was assessed by the measure of [^32P]Crosstide KK (Laine, J. Et al. J Biol Chem 2002, 277(5), 3743-3751). Table 6. Inhibition of Akt3 (PRKBG) at 10 µM

[4] = Maximum Tolerated Dose after acute administration; conditions: mouse, in vivo, ip, mice
Protocol: The Maximum Tolerated Dose (MTD) in mice was determined for selected compounds. The protocol of the studies was in accordance with the standard guidelines for drug development: • (htp://dtp.nci.nih.gov/branches/btb/acute tox.html). Table 10. Maximum Tolerated Doses in mice after acute i.p. administration

[5] = biological target: T3, Gonadotrophin-releasing hormone receptors (GnRH, LH-RH)R (Homo sapiens, UniProt P30968); test: GnRH radioligand binding assay; conditions: read-out: % Inhibition at 10 µM
T3 construct: expressed in transfected cells; host or cells: Chem-1 cells
T3 sequence (P30968 1-328): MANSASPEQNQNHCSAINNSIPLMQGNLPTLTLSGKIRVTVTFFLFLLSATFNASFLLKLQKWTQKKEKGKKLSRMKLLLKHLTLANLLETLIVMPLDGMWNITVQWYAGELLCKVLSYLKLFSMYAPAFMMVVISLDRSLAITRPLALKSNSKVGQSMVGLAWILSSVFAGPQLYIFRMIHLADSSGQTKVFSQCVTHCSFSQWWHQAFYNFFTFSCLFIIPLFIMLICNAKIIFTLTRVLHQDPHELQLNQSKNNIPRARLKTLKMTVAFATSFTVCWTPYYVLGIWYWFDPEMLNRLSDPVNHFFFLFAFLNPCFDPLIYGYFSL
Source text: Gonadotrophin-releasing hormone receptors (GnRH, LH-RH)R are a family of G protein-coupled receptors for GnRH, which promotes the secretion of luteinizing hormone (LH) and follicle-stimulating hormone (FSH). The activation of this receptor promotes, through estrogen receptors (ER) located in the cytosol, an increase in gene transcription and activation of tumor suppressor genes, DNA repair, cell division and cell proliferation. GnRH agonists are useful in breast, prostate and ovarian cancer, endometriosis, melanoma, rheumatoid arthritis and Alzheimer's disease. Table 17 presents the results from radioligand binding studies for GnRH for selected compounds using human recombinant Chem-1 cells (Halmos G, Schally AV, Pinski J, Vadillo-Buenfill M, Groot K. Down regulation of pituitary receptors for luteinizing hormone-releasing hormone (LH-RH) in rats by LH-RH antagonist Cetrorelix. Prco Natl Acad Sci USA 1996;93(6):2398-2402). The specific and non specific ligands used were [^125l] [D-Trp^6]-LH-RH (0.05 nM) and [D-Trp^6]-LH-RH ([…]) and after 60 min of incubation at 25°C in a 50 mM HEPES, pH 7.5, 5 mM MgCl2, 1 mM CaCl2, and 0.2% BSA the activity was measured by radioligand binding. Table 17. GnRH radioligand binding assay

ERβ = ERβ (Homo sapiens, UniProt Q92731); test: Inhibition of ERβ; assay type: binding; conditions: slight, non-significant
ERα = ERα (Homo sapiens, UniProt P03372); test: Inhibition of ERα; assay type: binding; conditions: slight, non-significant
Chain of ERα (P03372 whole entry, species assumed): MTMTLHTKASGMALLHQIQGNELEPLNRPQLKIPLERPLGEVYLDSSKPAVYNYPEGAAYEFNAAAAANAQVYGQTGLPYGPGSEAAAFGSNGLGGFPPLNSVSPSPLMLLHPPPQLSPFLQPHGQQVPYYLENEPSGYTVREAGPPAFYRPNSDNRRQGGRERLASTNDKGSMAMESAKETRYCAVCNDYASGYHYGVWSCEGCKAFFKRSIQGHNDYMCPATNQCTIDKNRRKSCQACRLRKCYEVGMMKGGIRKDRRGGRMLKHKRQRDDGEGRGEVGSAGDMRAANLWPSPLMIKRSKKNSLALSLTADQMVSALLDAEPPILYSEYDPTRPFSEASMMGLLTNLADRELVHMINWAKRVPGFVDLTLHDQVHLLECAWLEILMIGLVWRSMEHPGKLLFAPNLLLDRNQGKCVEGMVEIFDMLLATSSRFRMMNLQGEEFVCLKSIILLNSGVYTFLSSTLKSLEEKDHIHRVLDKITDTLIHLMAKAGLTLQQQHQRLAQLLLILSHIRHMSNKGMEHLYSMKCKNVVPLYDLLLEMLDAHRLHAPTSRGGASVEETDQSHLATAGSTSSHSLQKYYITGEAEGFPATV

T2 sequence (Q9Y243 whole entry): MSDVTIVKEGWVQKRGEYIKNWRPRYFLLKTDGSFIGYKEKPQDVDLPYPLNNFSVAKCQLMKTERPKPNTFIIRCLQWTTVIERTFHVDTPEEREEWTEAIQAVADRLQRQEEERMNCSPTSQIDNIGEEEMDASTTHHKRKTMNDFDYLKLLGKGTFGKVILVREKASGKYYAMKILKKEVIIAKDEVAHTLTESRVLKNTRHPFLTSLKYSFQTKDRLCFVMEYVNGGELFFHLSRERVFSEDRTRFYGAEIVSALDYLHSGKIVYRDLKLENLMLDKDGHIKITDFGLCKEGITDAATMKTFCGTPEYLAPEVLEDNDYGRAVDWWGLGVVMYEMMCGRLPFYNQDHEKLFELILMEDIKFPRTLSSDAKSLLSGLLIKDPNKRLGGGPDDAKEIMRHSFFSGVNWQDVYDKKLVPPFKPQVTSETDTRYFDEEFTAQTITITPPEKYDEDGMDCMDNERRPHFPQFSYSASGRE
Chain of ERβ (Q92731 whole entry, species assumed): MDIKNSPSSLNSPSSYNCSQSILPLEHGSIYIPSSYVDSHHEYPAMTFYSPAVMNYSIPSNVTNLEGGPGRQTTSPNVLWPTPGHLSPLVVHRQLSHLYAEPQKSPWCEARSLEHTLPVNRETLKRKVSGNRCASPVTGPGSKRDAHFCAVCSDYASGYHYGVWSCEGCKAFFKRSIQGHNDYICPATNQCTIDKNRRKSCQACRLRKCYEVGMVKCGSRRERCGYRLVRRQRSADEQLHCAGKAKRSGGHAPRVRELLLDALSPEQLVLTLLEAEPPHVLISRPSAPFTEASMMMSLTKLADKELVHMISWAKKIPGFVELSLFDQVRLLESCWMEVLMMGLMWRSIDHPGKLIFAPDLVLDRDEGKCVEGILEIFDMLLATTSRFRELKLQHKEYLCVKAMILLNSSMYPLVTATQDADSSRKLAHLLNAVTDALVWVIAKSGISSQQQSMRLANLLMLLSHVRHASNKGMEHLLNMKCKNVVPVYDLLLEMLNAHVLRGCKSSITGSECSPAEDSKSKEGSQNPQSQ

Structure (SMILES)	Time Licking and biting (sec) Early phase (0-5 min) (mice [1]; dose 1 mg/kg i.p.) [s]	Time Licking and biting (sec) Late phase (15-30 min) (mice [1]; dose 1 mg/kg i.p.) [s]	Time Licking and biting (sec) Early phase (0-5 min) (mice [1]; dose 5 mg/kg i.p.) [s]	Time Licking and biting (sec) Early phase (0-5 min) (mice [1]; dose 10 mg/kg i.p.) [s]	Time Licking and biting (sec) Early phase (0-5 min) (mice [1]; dose 30 mg/kg i.p.) [s]	inhibition at 10 µM ([2]; CDK2, at 10 µM, read-out: % Inhibition) [%]	Time Licking and biting (sec) Late phase (15-30 min) (mice [3]; dose 5 mg/kg i.p.) [s]	Time Licking and biting (sec) Late phase (15-30 min) (mice [3]; dose 10 mg/kg i.p.) [s]	Time Licking and biting (sec) Late phase (15-30 min) (mice [3]; dose 30 mg/kg i.p.) [s]	antinociceptive activity in the hot plate test (mice [3]; dose not given)	inhibition at 10 µM (Akt3 (PRKBG); Akt3 (PRKBG), at 10 µM, read-out: % Inhibition) [%]	MTD [4] [mg/kg]	inhibition at 10 µM ([5]; GnRH radioligand binding, 10 µM) [%]	inhibition at 10 µM (ERβ) [%]	inhibition at 10 µM (ERα) [%]	inhibition at 10 µM [2] [%]	inhibition at 10 µM (Akt3 (PRKBG)) [%]	inhibition at 10 µM [5] [%]
C=CCc1ccc(O)c(-c2cc(CC=C)ccc2OC(CCNC)c2ccccc2)c1.Cl (stereo not shown) [Example 1, 5,5'-Diallyl-2'-[3-(methylamino)-1-phenylpropoxy]biphenyl-2-ol hydrochloride]	57	200	45	38	30	92	150	150	20	antinociceptive activity	99	25	50	7	13	–	–	–
C=CCc1ccc(O)c(-c2ccc(OC(CCNC)c3ccccc3)c(CC=C)c2)c1 (stereo not shown) [Example 5, 3',5-Diallvl-4'-13-(methylamino)-1-phenylpropoxy]biphenyl-2-ol hydrochloride]	–	–	–	–	–	–	–	–	–	–	–	25	–	–	–	98	101	37
